# Source: patent publication EP3057951B1, “METHYLENE LINKED QUINOLINYL MODULATORS OF ROR-GAMMA-T” (Janssen Pharmaceutica NV, priority 2013, dated 2015)
# Several values for one entry are separate records, joined by “and”; a condition that tells them apart may be missing. Identical values can stand only once. Counter-ions that a name gives are not always drawn. Like-named read-outs stand apart in the source and are kept apart here.
# What was measured:
# [1] = target: T1, wild type human RORγt ligand binding domain (RORyt LBD) (Homo sapiens, UniProt P51449); assay: RORγt ThermoFluor assay (thermal shift, binding affinity KD)
# T1 construct: His-tag (N); TurboTEV protease cleavage site (ENLYFQG) (N); made in house; host or cells: E. coli (pHIS1, modified pET vector)
# T1 sequence (P51449 258-518): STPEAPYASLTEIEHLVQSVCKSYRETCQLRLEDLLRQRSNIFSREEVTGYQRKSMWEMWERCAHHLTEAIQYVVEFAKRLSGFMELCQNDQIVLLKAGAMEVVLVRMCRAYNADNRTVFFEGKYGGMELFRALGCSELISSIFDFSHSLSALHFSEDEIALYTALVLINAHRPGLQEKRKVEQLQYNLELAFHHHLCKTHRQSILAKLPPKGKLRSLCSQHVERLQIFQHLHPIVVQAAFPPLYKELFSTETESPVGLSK
# [2] = target: T2, wild type human RORγt LBD (Homo sapiens, UniProt P51449); assay: RORγt (LBD) Reporter Assay (GAL4-luciferase, HEK293T cells); format: cell-based; details: for inhibition at 6 µM: HEK-293T, read-out: RORγt (LBD) Reporter Assay, % inhibition @ 6 µM, 6 µM compound concentration; for RORγt (LBD) Reporter Assay, % inhibition @ 6 µM: 6 µM compound concentration
# T2 construct: expressed in transfected cells; host or cells: HEK293T
# T2 sequence (P51449 258-518): T1 sequence (P51449 258-518)
# [3] = HEK293T cells, value after the comma with ∼, > or < could not be included in the average
Kd [1] [nM],"IC50 [2, 3] [nM]",inhibition at 6 µM [2] [%],IC50 ([2]; HEK293T cells),inhibition at 6 µM ([2]; HEK293T cells) [%],"RORγt (LBD) Reporter Assay, % inhibition @ 6 µM ([2]; HEK293T cells) [%]","RORγt (LBD) Reporter Assay, % inhibition @ 6 µM [2] [%]",Compound
590,830,101,–,–,–,–,"COc1c(Cc2ccccc2)c(C(F)(F)F)nc2ccc(C(O)(c3ccccn3)c3cncn3C)cc12 (racemic) [Example 98a, (3-Benzyl-4-methoxy-2-(trifluoromethyl)quinolin-6-yl)(1-methyl-1H-imidazol-5-yl)(pyridin-2-yl)methanol•TFA]"
9.4,–,–,290 nM,100,–,–,"COc1nc2ccc(C(O)(c3ccc(C)nc3C)C3CN(C(=O)OC(C)(C)C)C3)cc2c(Cl)c1Cc1ccc(C(F)(F)F)cc1 (stereo not drawn) [Example 125, tert-Butyl-3-((4-chloro-2-methoxy-3-(4-(trifluoromethyl)benzyl)quinolin-6-yl)(2,6-dimethylpyridin-3-yl)(hydroxy)methyl)azetidine-1-carboxylate]"
36,310,97,–,–,–,–,"CC(=O)N1CCC(C(O)(c2cc(C)c3nc(C#N)c(Cc4ccc(-n5cccn5)cc4)c(C#N)c3c2)c2cncn2C)CC1 (single isomer, unassigned) [Example 81b, 3-(4-(1H-Pyrazol-1-yl)benzyl)-6-((1-acetylpiperidin-4-yl)(hydroxy)(1-methyl-1H-imidazol-5-yl)methyl)-8-methylquinoline-2,4-dicarbonitrile]"
1.1,40,91,–,–,–,–,"COc1nc2ccc(C(O)(c3ccc(C)nc3C)c3cnnn3C)cc2c(Cl)c1Cc1ccc(C)cc1 (stereo not drawn) [Example 20a, (4-Chloro-2-methoxy-3-(4-methylbenzyl)quinolin-6-yl)(2,6-dimethylpyridin-3-yl)(1-methyl-1H-1,2,3-triazol-5-yl)methanol]"
1400,~900,99,–,–,–,–,"Cn1cc(-c2nc3ccc(C(O)(c4ccc(C(F)(F)F)nc4)c4cncn4C)cc3c(Cl)c2Cc2ccccc2)cn1 (single isomer, unassigned) [Example 111b, (3-Benzyl-4-chloro-2-(1-methyl-1H-pyrazol-4-yl)quinolin-6-yl)(1-methyl-1H-imidazol-5-yl)(6-(trifluoromethyl)pyridin-3-yl)methanol]"
8,83,99,–,–,–,–,"COc1nc2ccc(C(O)(c3ccccc3)C3CCN(C(C)=O)CC3)cc2c(Cl)c1Cc1ccc(-n2cncn2)cc1 (single isomer, unassigned) [Example 18b, 1-(4-((3-(4-(1H-1,2,4-Triazol-1-yl)benzyl)-4-chloro-2-methoxyquinolin-6-yl)(hydroxy)(phenyl)methyl)piperidin-1-yl)ethanone]"
1.8,6.8,100,–,–,–,–,"COc1nc2ccc(C(O)(c3ccc(C)nc3C)C3CN(C(C)=O)C3)cc2c(Cl)c1Cc1ccc(C(F)(F)F)cc1 (racemic) [Example 87a, 1-(3-((4-Chloro-2-methoxy-3-(4-(trifluoromethyl)benzyl)quinolin-6-yl)(2,6-dimethylpyridin-3-yl)(hydroxy)methyl)azetidin-1-yl)ethanone]"
4.5,–,–,140 nM,–,94,–,"Cc1cc(C(O)(c2ccc(C(F)(F)F)nc2)c2cncn2C)cc2c(Cl)c(Cc3ccc(-n4cccn4)cc3)c(N3CCC3)nc12 (single isomer, unassigned) [Example 137c, {2-Azetidin-1-yl-4-chloro-8-methyl-3-[4-(1H-pyrazol-1-yl)benzyl]quinolin-6-yl}(1-methyl-1H-imidazol-5-yl)[6-(trifluoromethyl)pyridin-3-yl]methanol]"
1300,–,–,560 nM,101,–,–,"Cn1cncc1C(O)(c1ccc(Cl)cc1)c1ccc2nc(N3CCC3)c(Cc3ccc(-n4cccn4)cc3)c(Cl)c2c1 (single isomer, unassigned) [Example 138b, {2-Azetidin-1-yl-4-chloro-3-[4-(1H-pyrazol-1-yl)benzyl]quinolin-6-yl}(4-chlorophenyl)(1-methyl-1H-imidazol-5-yl)methanol]"
110,–,–,160 nM,–,99,–,"COc1nc2ccc(C(O)(c3ccc(F)cc3)C3CCN(C(C)=O)CC3)cc2c(Cl)c1Cc1ccc(-n2cccn2)cc1 (single isomer, unassigned) [Example 157c, 1-(4-((3-(4-(1H-Pyrazol-1-yl)benzyl)4-chloro-2-methoxyquinolin-6-yl)(4-fluorophenyl)(hydroxy)methyl)piperidin-1-yl)ethanone]"
0.31,1.3,99,–,–,–,–,"COc1nc2ccc(C(O)(c3cnnn3C)C3CCOCC3)cc2c(Cl)c1Cc1ccc(C(F)(F)F)cc1 (single isomer, unassigned) [Example 85b, (4-Chloro-2-methoxy-3-(4-(trifluoromethyl)benzyl)quinolin-6-yl)(1-methyl-1H-1,2,3-triazol-5-yl)(tetrahydro-2H-pyran-4-yl)methanol]"
25,220,78,–,–,–,–,"Cn1cncc1C(O)(c1ccc(Cl)cc1)c1ccc2nc(C(F)(F)F)c(Cc3ccccc3)c(Cl)c2c1 (stereo not drawn) [Example 100, (3-benzyl-4-chloro-2-(trifluoromethyl)quinolin-6-yl)(4-chlorophenyl)(1-methyl-1H-imidazol-5-yl)methanol•TFA]"
1200,1600,92,–,–,–,–,"COc1nc2ccc(C(O)(c3ccc(C)nc3C)c3cnnn3C)cc2c(C#N)c1Cc1ccc(C(F)(F)F)nc1 (single isomer, unassigned) [Example 41b, 6-((2,6-Dimethylpyridin-3-yl)(hydroxy)(1-methyl-1H-1,2,3-triazol-5-yl)methyl)-2-methoxy-3-((6-(trifluoromethyl)pyridin-3-yl)methyl)quinoline-4-carbonitrile]"
0.003,6,–,–,–,–,100,"COc1nc2ccc(C(O)(c3cc(C)nc(C)c3)c3cnnn3C)cc2c(Cl)c1Cc1ccc(C(F)(F)F)cc1 (single isomer, unassigned) [Example 84c, (4-Chloro-2-methoxy-3-(4-(trifluoromethyl)benzyl)quinolin-6-yl)(2,6-dimethylpyridin-4-yl)(1-methyl-1H-1,2,3-triazol-5-yl)methanol]"
140,120,105,–,–,–,–,"COc1nc2ccc(C(O)(c3ccc(C#N)cc3)c3cncn3C)cc2c(Cl)c1Cc1ccc(-n2cncn2)cc1 (single isomer, unassigned) [Example 14b, 4-((3-(4-(1H-1,2,4-Triazol-1-yl)benzyl)-4-chloro-2-methoxyquinolin-6-yl)(hydroxy)(1-methyl-1H-imidazol-5-yl)methyl)benzonitrile]"
0.15,–,–,0.66 nM and ~1 nM,–,99,–,"Cc1ccc(C(O)(c2ccc3nc(N4CCC4)c(Cc4ccc(C(F)(F)F)cc4)c(Cl)c3c2)c2cnnn2C)c(C)n1 (single isomer, unassigned) [Example 140c, {2-Azetidin-1-yl-4-chloro-3-[4-(trifluoromethyl)benzyl]quinolin-6-yl}(2,6-dimethylpyridin-3-yl)(1-methyl-1H-1,2,3-triazol-5-yl)methanol]"

Compound,Kd [1] [nM],"IC50 [2, 3] [nM]",inhibition at 6 µM [2] [%],IC50 ([2]; HEK293T cells),inhibition at 6 µM ([2]; HEK293T cells) [%],"RORγt (LBD) Reporter Assay, % inhibition @ 6 µM ([2]; HEK293T cells) [%]","RORγt (LBD) Reporter Assay, % inhibition @ 6 µM [2] [%]"
"Cc1cc(C(O)(c2ccc(Cl)cc2)c2cncn2C)cc2c(Cl)c(Cc3ccc(-n4cccn4)cc3)c(S(C)(=O)=O)nc12 (stereo not drawn) [Example 142, {4-Chloro-8-methyl-2-(methylsulfonyl)-3-[4-(1H-pyrazol-1-yl)benzyl]quinolin-6-yl}(4-chlorophenyl)(1-methyl-1H-imidazol-5-yl)methanol]",1500,–,–,1600 nM,87,–,–
